According to US11332438B2, “Creatine prodrugs, compositions and methods of use thereof” (Ultragenyx Pharmaceutical Inc., priority 2017, dated 2022):

Legend:
creatine transporter = biological target: T1, creatine transporter (Rattus norvegicus, UniProt P28570); assay: Co-administration with creatine transporter blocker beta-guanidinopropionic acid (GPA), d3-Cr in WT rat brain; format: in vivo
T1 construct: from tissue; host or cells: WT rat, in vivo (brain / blood-brain barrier)
T1 sequence (P28570 1-635): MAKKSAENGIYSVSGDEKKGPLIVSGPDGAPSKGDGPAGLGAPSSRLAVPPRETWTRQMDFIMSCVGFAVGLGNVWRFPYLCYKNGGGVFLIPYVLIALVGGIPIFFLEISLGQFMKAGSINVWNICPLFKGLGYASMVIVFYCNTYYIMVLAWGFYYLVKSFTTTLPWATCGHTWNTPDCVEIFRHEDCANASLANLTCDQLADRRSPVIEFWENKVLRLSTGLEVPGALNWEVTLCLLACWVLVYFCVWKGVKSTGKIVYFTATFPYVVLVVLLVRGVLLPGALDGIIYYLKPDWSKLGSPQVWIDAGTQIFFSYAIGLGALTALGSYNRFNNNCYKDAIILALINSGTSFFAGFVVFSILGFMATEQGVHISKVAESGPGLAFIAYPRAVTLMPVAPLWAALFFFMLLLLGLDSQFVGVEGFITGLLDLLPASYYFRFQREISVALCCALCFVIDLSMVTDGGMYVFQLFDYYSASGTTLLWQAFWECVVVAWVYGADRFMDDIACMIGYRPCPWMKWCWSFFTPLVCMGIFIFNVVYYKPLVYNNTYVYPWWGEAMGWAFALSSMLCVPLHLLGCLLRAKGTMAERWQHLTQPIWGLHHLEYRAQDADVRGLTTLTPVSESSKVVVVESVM

[1] = Chemical stability in simulated intestinal fluid (SIF) without pancreatin; format: physicochemical; settings: Table 2A, 50 μM prodrug
Description: Chemical stability of creatine prodrugs in phosphate buffered saline (PBS), simulated intestinal fluid (SIF) without pancreatin, simulated gastric fluid (SGF) without pepsin were determined by LC-UV, LC-CAD, LC-UV-CAD or LC-MS/MS as appropriate. Creatine prodrugs of the present disclosure (50 μM) were incubated at 37° C. according to described protocols and prodrug levels were compared between t=0, t=15, t=60, and t=120 mins by peak area ratio to determine the percentage remained at t=120 mins (2 h).
Protocol for PBS, SIF and SGF stability for screening:
Prodrugs (50 μM) were incubated in PBS, FaSSIF (Biorelevant) or FaSSGF (Biorelevant) at 37° C.

levels of d3-Cr in WT rat brains with co-administration of GPA compared to dosing alone (creatine transporter): did not change | Chemical Stability SIF, no enzyme % T0 at 2 hours at 37 °C. [1]: 17%
SMILES: Cl.[2H]C([2H])([2H])N(CC(=O)OCC)C(=N)NC(=O)CCCCCCCCCC [Compound 8]
